Key:
Assay type in all cases: cell-based, human
[1] = tested on: six V600E BRAF melanoma cell lines; assay: Screening of recombinant RTK ligands for ability to confer resistance to BRAFi (PLX4720) or MEKi (PD184352) (Table 4); parameters: ability of recombinant RTK ligand to confer resistance / ability of recombinant RTK ligand to confer resistance (screening value): scale not given here
Method in brief: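 Resistance to BRAFi (PLX4720) or MEKi (PD184352) was tested in six V600E BRAF melanoma lines given one of 22 recombinant RTK ligands. For a subset of RTKs, activation was checked by high-throughput tyrosine kinase phosphorylation profiling and western blot.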

pERK/pAKT = assay: High-throughput western analysis of pERK/pAKT re-activation by RTK ligands under BRAFi/MEKi
[2] = tested on: V600E BRAF melanoma cell lines; assay: HGF-induced / stromal resistance of melanoma cell lines to BRAF, MEK and AKT inhibitors and its reversal

HGF: paracrine cellular growth factor, ligand of the RTK c-MET
ability of recombinant RTK ligand to confer resistance ([1]; A2058, PD184352 - 1 uM, ligand 0.4 ng/ml): 1.02 | ability of recombinant RTK ligand to confer resistance ([1]; A2058, PD184352 - 1 uM, ligand 1.6 ng/ml): 1.01 | ability of recombinant RTK ligand to confer resistance ([1]; A2058, PD184352 - 1 uM, ligand 6.25 ng/ml): 1.10 | ability of recombinant RTK ligand to confer resistance ([1]; A2058, PD184352 - 1 uM, ligand 25 ng/ml): 1.10 | ability of recombinant RTK ligand to confer resistance ([1]; A2058, PD184352 - 1 uM, ligand 100 ng/ml): 1.66 | ability of recombinant RTK ligand to confer resistance ([1]; A2058, PLX4720 - 2 uM, ligand 0.4 ng/ml): 1.03 | ability of recombinant RTK ligand to confer resistance ([1]; A2058, PLX4720 - 2 uM, ligand 1.6 ng/ml): 1.02 | ability of recombinant RTK ligand to confer resistance ([1]; A2058, PLX4720 - 2 uM, ligand 6.25 ng/ml): 1.12 | ability of recombinant RTK ligand to confer resistance ([1]; A2058, PLX4720 - 2 uM, ligand 25 ng/ml): 1.32 | ability of recombinant RTK ligand to confer resistance ([1]; A2058, PLX4720 - 2 uM, ligand 100 ng/ml): 1.49 | ability of recombinant RTK ligand to confer resistance ([1]; C32, PD184352 - 1 uM, ligand 0.4 ng/ml): 1.10 | ability of recombinant RTK ligand to confer resistance ([1]; C32, PD184352 - 1 uM, ligand 1.6 ng/ml): 1.08 | ability of recombinant RTK ligand to confer resistance ([1]; C32, PD184352 - 1 uM, ligand 6.25 ng/ml): 1.29 | ability of recombinant RTK ligand to confer resistance ([1]; C32, PD184352 - 1 uM, ligand 25 ng/ml): 1.08 | ability of recombinant RTK ligand to confer resistance ([1]; C32, PD184352 - 1 uM, ligand 100 ng/ml): 1.96 | ability of recombinant RTK ligand to confer resistance ([1]; C32, PLX4720 - 2 uM, ligand 0.4 ng/ml): 1.04 | ability of recombinant RTK ligand to confer resistance ([1]; C32, PLX4720 - 2 uM, ligand 1.6 ng/ml): 1.15 | ability of recombinant RTK ligand to confer resistance ([1]; C32, PLX4720 - 2 uM, ligand 6.25 ng/ml): 1.42 | ability of recombinant RTK ligand to confer resistance ([1]; C32, PLX4720 - 2 uM, ligand 25 ng/ml): 1.96 | ability of recombinant RTK ligand to confer resistance ([1]; C32, PLX4720 - 2 uM, ligand 100 ng/ml): 2.01 | ability of recombinant RTK ligand to confer resistance ([1]; Colo 829, PD184352 - 1 uM, ligand 0.4 ng/ml): 0.96 | ability of recombinant RTK ligand to confer resistance ([1]; Colo 829, PD184352 - 1 uM, ligand 1.6 ng/ml): 0.99 | ability of recombinant RTK ligand to confer resistance ([1]; Colo 829, PD184352 - 1 uM, ligand 6.25 ng/ml): 1.12 | ability of recombinant RTK ligand to confer resistance ([1]; Colo 829, PD184352 - 1 uM, ligand 25 ng/ml): 1.41 | ability of recombinant RTK ligand to confer resistance ([1]; Colo 829, PD184352 - 1 uM, ligand 100 ng/ml): 1.89 | ability of recombinant RTK ligand to confer resistance ([1]; Colo 829, PLX4720 - 2 uM, ligand 0.4 ng/ml): 1.00 | ability of recombinant RTK ligand to confer resistance ([1]; Colo 829, PLX4720 - 2 uM, ligand 1.6 ng/ml): 1.02 | ability of recombinant RTK ligand to confer resistance ([1]; Colo 829, PLX4720 - 2 uM, ligand 6.25 ng/ml): 1.14 | ability of recombinant RTK ligand to confer resistance ([1]; Colo 829, PLX4720 - 2 uM, ligand 25 ng/ml): 1.35 | ability of recombinant RTK ligand to confer resistance ([1]; Colo 829, PLX4720 - 2 uM, ligand 100 ng/ml): 1.71 | ability of recombinant RTK ligand to confer resistance ([1]; G-361, PD184352 - 1 uM, ligand 0.4 ng/ml): 1.17 | ability of recombinant RTK ligand to confer resistance ([1]; G-361, PD184352 - 1 uM, ligand 1.6 ng/ml): 1.03 | ability of recombinant RTK ligand to confer resistance ([1]; G-361, PD184352 - 1 uM, ligand 6.25 ng/ml): 1.19 | ability of recombinant RTK ligand to confer resistance ([1]; G-361, PD184352 - 1 uM, ligand 25 ng/ml): 1.68 | ability of recombinant RTK ligand to confer resistance ([1]; G-361, PD184352 - 1 uM, ligand 100 ng/ml): 1.10 | ability of recombinant RTK ligand to confer resistance ([1]; G-361, PLX4720 - 2 uM, ligand 0.4 ng/ml): 0.97 | ability of recombinant RTK ligand to confer resistance ([1]; G-361, PLX4720 - 2 uM, ligand 1.6 ng/ml): 1.03 | ability of recombinant RTK ligand to confer resistance ([1]; G-361, PLX4720 - 2 uM, ligand 6.25 ng/ml): 1.24 | ability of recombinant RTK ligand to confer resistance ([1]; G-361, PLX4720 - 2 uM, ligand 25 ng/ml): 2.27 | ability of recombinant RTK ligand to confer resistance ([1]; G-361, PLX4720 - 2 uM, ligand 100 ng/ml): 9.24 | ability of recombinant RTK ligand to confer resistance ([1]; SK-MEL-5, PD184352 - 1 uM, ligand 0.4 ng/ml): 0.99 | ability of recombinant RTK ligand to confer resistance ([1]; SK-MEL-5, PD184352 - 1 uM, ligand 1.6 ng/ml): 1.17 | ability of recombinant RTK ligand to confer resistance ([1]; SK-MEL-5, PD184352 - 1 uM, ligand 6.25 ng/ml): 1.16 | ability of recombinant RTK ligand to confer resistance ([1]; SK-MEL-5, PD184352 - 1 uM, ligand 25 ng/ml): 1.81 | ability of recombinant RTK ligand to confer resistance ([1]; SK-MEL-5, PD184352 - 1 uM, ligand 100 ng/ml): 2.32 | ability of recombinant RTK ligand to confer resistance ([1]; SK-MEL-5, PLX4720 - 2 uM, ligand 0.4 ng/ml): 0.98 | ability of recombinant RTK ligand to confer resistance ([1]; SK-MEL-5, PLX4720 - 2 uM, ligand 1.6 ng/ml): 1.37 | ability of recombinant RTK ligand to confer resistance ([1]; SK-MEL-5, PLX4720 - 2 uM, ligand 6.25 ng/ml): 1.35 | ability of recombinant RTK ligand to confer resistance ([1]; SK-MEL-5, PLX4720 - 2 uM, ligand 25 ng/ml): 1.95 | ability of recombinant RTK ligand to confer resistance ([1]; SK-MEL-5, PLX4720 - 2 uM, ligand 100 ng/ml): 1.93 | ability of recombinant RTK ligand to confer resistance ([1]; SK-MEL-28, PD184352 - 1 uM, ligand 0.4 ng/ml): 1.11 | ability of recombinant RTK ligand to confer resistance ([1]; SK-MEL-28, PD184352 - 1 uM, ligand 1.6 ng/ml): 1.16 | ability of recombinant RTK ligand to confer resistance ([1]; SK-MEL-28, PD184352 - 1 uM, ligand 6.25 ng/ml): 1.22 | ability of recombinant RTK ligand to confer resistance ([1]; SK-MEL-28, PD184352 - 1 uM, ligand 25 ng/ml): 1.46 | ability of recombinant RTK ligand to confer resistance ([1]; SK-MEL-28, PD184352 - 1 uM, ligand 100 ng/ml): 1.87 | ability of recombinant RTK ligand to confer resistance ([1]; SK-MEL-28, PLX4720 - 2 uM, ligand 0.4 ng/ml): 1.05 | ability of recombinant RTK ligand to confer resistance ([1]; SK-MEL-28, PLX4720 - 2 uM, ligand 1.6 ng/ml): 1.42 | ability of recombinant RTK ligand to confer resistance ([1]; SK-MEL-28, PLX4720 - 2 uM, ligand 6.25 ng/ml): 1.55 | ability of recombinant RTK ligand to confer resistance ([1]; SK-MEL-28, PLX4720 - 2 uM, ligand 25 ng/ml): 3.85 | ability of recombinant RTK ligand to confer resistance ([1]; SK-MEL-28, PLX4720 - 2 uM, ligand 100 ng/ml): 2.20 | ability of RTK ligand to confer primary resistance ([1]; six V600E BRAF melanoma cell lines, BRAFi (PLX4720) or MEKi (PD184352)): confer substantial primary resistance | activation of pAKT by HGF over time (pERK/pAKT; under BRAFi (PLX4720)): sustained over time | reactivation of pERK by HGF (pERK/pAKT; under BRAFi (PLX4720)): substantially reactivate pERK | re-activation of pERK/pAKT (pERK/pAKT; under BRAFi (PLX4720), after 1 hour of cytokine treatment, six V600E BRAF melanoma cell lines): reactivate both ERK and AKT | reactivation of pERK by HGF (pERK/pAKT; under MEKi (PD184352)): not under MEKi | activation of pAKT by RTK ligands (pERK/pAKT; under PLX4720, FIG. 10B): activates AKT in every cell lines tested | duration of ERK/AKT activation (pERK/pAKT; under PLX4720 treatment): long lasting | HGF-conferred resistance, BRAFi versus MEKi ([2]; FIG. 11C): better resistance to BRAFi than MEKi | HGF-conferred resistance ([2]; combination of BRAFi and AKTi (MK-2206)): confers resistance
